Test results from PubChem BioAssay (NCI).
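48-hour exposure; five concentrations; linearly interpolated endpoints. The concentration for full growth arrest is given as TGI.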

Experiments:
Experiment in all cases: DTP human tumour cell line panel, 48 h
[1] = test system: 786-0 renal
[2] = test system: A498 renal
[3] = test system: A549 NSCLC
[4] = test system: ACHN renal
[5] = test system: BT-549 breast
[6] = test system: CAKI-1 renal
[7] = test system: CCRF-CEM leukemia
[8] = test system: COLO 205 colon
[9] = test system: DU-145 prostate
[10] = test system: EKVX NSCLC
[11] = test system: HCC-2998 colon
[12] = test system: HCT-116 colon
[13] = test system: HCT-15 colon
[14] = test system: HL-60(TB) leukemia
[15] = test system: HOP-92 NSCLC
[16] = test system: HS 578T breast
[17] = test system: HT29 colon
[18] = test system: IGROV1 ovarian
[19] = test system: K-562 leukemia
[20] = test system: KM12 colon
[21] = test system: LOX IMVI melanoma
[22] = test system: M14 melanoma
[23] = test system: MALME-3M melanoma
[24] = test system: MCF7 breast
[25] = test system: MDA-MB-231 breast
[26] = test system: MDA-MB-435
[27] = test system: MDA-N
[28] = test system: MOLT-4 leukemia
[29] = test system: NCI-H226 lung
[30] = test system: NCI-H23 lung
[31] = test system: NCI-H460 lung
[32] = test system: NCI-H522 lung
[33] = test system: NCI/ADR-RES ovarian
[34] = test system: OVCAR-4 ovarian
[35] = test system: OVCAR-5 ovarian
[36] = test system: OVCAR-8 ovarian
[37] = test system: PC-3 prostate
[38] = test system: RPMI-8226 leukemia
[39] = test system: RXF 393 renal
[40] = test system: SF-268 CNS
[41] = test system: SF-539 CNS
[42] = test system: SK-MEL-2 melanoma
[43] = test system: SK-MEL-28 melanoma
[44] = test system: SK-MEL-5 melanoma
[45] = test system: SN12C renal
[46] = test system: SNB-19 CNS
[47] = test system: SNB-75 CNS
[48] = test system: SR leukemia
[49] = test system: SW-620 colon
[50] = test system: T-47D breast
[51] = test system: TK-10 renal
[52] = test system: U251 CNS
[53] = test system: UACC-257 melanoma
[54] = test system: UACC-62 melanoma
[55] = test system: UO-31 renal
[56] = test system: OVCAR-3 ovarian
[57] = test system: SF-295 CNS
[58] = test system: SK-OV-3 ovarian

Measured: TGI

COc1ccccc1/C=C/C1=NN(c2cccc(S(=O)(=O)O)c2)C2(C1)SCC(=O)N2c1nc2ccccc2s1 (stereo unspecified)
65.4 µM: [38]
90 µM: [7]
87.9 µM: [48]
71.8 µM: [50]
not listed: [56] | [57] | [58]
> 100 µM: all other assays above

CCOC(=O)C1(C(N)=O)C(=O)c2ccncc2C1=O (stereo unspecified)
not listed: [28] | [51]
> 100 µM: all other assays above
